Data published in publication PMC11167047 (Cell Death Discovery, 2024).

How the values were obtained:
Experiment in all cases: kinome screen (33PanQinase)
Assay type in all cases: biochemical
[1] = target: T1, EPHA4 (Homo sapiens, UniProt P54764)
T1 construct: purchased Reaction Biology Europe GmbH (formerly ProQinase)
Method: (§1) The Kinome Screening was performed by Reaction Biology Europe GmbH (http://reactionbiology.com; Freiburg i. Br., Germany).

[2] = target: T2, CAMK2D (Homo sapiens, UniProt Q13557)
T2 construct: purchased Reaction Biology Europe GmbH (formerly ProQinase)
Method: as §1

[3] = target: T3, CDK7/CycH/MAT1 (Homo sapiens, UniProt P50613)
T3 construct: purchased Reaction Biology Europe GmbH (formerly ProQinase)
Method: as §1

[4] = target: T4, MAP4K2 (Homo sapiens, UniProt Q12851)
T4 construct: purchased Reaction Biology Europe GmbH (formerly ProQinase)
T4 sequence (Q12851 1-820): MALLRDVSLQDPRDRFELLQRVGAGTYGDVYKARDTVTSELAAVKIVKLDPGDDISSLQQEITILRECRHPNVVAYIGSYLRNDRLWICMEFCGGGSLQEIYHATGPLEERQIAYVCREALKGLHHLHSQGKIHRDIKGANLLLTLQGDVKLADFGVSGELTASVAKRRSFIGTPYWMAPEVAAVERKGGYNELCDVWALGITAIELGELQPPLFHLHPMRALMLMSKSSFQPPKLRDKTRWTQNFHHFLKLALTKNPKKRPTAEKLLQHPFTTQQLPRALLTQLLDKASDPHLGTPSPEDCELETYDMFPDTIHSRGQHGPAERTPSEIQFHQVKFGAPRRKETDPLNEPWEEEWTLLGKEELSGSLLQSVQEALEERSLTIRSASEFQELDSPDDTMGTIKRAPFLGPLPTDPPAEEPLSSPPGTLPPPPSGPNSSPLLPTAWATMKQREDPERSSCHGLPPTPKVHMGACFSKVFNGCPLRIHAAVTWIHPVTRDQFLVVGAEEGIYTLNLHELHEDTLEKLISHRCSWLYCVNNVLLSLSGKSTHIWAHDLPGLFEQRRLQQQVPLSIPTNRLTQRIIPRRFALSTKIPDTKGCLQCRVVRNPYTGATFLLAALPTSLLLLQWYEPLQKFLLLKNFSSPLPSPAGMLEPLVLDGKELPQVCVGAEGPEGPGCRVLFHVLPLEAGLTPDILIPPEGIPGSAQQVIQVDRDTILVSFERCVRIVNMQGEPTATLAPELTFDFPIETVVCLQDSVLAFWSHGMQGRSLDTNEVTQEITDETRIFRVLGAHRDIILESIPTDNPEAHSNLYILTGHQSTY
Method: as §1

[5] = target: T5, CLK1 (Homo sapiens, UniProt P49759)
T5 construct: purchased Reaction Biology Europe GmbH (formerly ProQinase)
Method: as §1

[6] = target: T6, NEK6 (Homo sapiens, UniProt Q9HC98)
T6 construct: purchased Reaction Biology Europe GmbH (formerly ProQinase)
Method: as §1

[7] = target: T7, TLK1 (Homo sapiens, UniProt Q9UKI8)
T7 construct: purchased Reaction Biology Europe GmbH (formerly ProQinase)
T7 sequence (Q9UKI8 1-766): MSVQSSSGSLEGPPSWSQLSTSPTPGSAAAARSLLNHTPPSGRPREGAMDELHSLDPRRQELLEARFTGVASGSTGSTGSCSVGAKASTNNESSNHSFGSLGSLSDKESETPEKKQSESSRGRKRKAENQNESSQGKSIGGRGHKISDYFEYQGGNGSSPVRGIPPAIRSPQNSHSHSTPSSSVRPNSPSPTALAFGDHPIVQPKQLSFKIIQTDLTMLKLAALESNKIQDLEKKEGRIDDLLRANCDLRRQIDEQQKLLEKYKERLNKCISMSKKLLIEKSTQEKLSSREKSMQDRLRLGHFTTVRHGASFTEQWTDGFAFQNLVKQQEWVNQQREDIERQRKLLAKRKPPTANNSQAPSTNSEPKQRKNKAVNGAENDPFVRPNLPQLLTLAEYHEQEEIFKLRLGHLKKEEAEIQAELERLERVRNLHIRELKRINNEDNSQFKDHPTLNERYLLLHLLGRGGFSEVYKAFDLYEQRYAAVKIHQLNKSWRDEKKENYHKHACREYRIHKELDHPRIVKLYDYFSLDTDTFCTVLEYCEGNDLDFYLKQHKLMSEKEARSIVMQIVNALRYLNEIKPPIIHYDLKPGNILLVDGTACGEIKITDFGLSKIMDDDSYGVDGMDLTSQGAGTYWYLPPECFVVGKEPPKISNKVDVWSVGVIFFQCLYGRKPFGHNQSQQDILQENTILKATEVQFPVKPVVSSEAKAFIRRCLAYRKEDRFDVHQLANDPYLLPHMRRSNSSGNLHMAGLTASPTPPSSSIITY
Method: as §1

T2 sequence (Q13557 whole entry): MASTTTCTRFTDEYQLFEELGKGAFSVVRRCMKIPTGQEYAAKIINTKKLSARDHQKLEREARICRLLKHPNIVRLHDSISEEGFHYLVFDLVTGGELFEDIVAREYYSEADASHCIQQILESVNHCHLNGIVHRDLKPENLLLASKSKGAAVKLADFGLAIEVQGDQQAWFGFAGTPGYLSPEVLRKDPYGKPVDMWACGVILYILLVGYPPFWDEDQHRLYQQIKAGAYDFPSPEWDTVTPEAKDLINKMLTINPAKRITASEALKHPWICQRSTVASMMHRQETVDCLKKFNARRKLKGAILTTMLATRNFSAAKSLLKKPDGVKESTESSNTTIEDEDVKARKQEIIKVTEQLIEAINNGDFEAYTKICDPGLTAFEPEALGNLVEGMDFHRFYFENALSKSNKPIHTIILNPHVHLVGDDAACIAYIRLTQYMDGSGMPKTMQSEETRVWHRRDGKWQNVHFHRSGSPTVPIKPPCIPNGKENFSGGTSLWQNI
T6 sequence (Q9HC98 whole entry): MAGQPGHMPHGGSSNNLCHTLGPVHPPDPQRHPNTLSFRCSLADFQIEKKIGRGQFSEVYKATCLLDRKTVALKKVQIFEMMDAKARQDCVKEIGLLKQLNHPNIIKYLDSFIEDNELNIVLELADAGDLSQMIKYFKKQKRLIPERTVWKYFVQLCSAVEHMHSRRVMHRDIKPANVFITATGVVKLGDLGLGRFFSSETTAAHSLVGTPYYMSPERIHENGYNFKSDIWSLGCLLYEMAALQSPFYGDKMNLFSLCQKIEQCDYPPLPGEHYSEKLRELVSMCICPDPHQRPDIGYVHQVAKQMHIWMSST
T5 sequence (P49759 whole entry): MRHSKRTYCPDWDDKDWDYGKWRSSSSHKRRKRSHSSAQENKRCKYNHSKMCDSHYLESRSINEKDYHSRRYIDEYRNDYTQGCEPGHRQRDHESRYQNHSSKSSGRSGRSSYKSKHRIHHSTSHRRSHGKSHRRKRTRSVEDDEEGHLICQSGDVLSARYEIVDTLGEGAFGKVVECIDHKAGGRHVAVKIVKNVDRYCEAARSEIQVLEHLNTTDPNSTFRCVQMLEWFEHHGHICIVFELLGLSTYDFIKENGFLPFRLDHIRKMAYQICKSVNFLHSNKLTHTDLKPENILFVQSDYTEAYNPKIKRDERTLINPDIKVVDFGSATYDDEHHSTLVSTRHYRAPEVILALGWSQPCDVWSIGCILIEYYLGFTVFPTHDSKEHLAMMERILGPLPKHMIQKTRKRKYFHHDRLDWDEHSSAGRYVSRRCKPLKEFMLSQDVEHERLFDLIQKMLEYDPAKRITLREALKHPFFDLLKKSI
T3 sequence (P50613 whole entry): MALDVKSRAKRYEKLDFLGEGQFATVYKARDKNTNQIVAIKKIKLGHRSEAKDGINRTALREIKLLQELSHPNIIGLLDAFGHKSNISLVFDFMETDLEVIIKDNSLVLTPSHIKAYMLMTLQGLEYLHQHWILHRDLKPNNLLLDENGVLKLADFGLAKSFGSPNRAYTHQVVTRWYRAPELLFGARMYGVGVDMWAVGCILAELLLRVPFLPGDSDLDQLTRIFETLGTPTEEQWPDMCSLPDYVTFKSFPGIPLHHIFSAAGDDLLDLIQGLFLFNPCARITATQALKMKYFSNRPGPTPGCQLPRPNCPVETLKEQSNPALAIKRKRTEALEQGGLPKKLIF
T3 sequence (P51946 whole entry partner): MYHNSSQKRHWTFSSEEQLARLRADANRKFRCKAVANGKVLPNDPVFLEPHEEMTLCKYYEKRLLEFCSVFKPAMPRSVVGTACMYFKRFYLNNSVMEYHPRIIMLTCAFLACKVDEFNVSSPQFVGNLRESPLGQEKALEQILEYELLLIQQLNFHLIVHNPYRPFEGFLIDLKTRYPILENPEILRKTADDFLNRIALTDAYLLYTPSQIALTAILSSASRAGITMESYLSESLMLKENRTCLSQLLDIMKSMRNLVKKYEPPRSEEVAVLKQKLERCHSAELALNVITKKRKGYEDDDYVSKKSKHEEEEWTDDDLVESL
T3 sequence (P51948 whole entry partner): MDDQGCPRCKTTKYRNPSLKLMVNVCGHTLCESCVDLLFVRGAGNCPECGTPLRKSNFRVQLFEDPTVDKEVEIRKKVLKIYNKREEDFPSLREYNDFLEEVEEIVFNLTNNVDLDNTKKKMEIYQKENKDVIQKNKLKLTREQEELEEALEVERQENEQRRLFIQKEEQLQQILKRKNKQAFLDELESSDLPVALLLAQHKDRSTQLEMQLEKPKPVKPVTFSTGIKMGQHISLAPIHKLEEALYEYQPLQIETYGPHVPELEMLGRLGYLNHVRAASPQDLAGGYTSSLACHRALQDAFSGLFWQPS
T1 sequence (P54764 20-986): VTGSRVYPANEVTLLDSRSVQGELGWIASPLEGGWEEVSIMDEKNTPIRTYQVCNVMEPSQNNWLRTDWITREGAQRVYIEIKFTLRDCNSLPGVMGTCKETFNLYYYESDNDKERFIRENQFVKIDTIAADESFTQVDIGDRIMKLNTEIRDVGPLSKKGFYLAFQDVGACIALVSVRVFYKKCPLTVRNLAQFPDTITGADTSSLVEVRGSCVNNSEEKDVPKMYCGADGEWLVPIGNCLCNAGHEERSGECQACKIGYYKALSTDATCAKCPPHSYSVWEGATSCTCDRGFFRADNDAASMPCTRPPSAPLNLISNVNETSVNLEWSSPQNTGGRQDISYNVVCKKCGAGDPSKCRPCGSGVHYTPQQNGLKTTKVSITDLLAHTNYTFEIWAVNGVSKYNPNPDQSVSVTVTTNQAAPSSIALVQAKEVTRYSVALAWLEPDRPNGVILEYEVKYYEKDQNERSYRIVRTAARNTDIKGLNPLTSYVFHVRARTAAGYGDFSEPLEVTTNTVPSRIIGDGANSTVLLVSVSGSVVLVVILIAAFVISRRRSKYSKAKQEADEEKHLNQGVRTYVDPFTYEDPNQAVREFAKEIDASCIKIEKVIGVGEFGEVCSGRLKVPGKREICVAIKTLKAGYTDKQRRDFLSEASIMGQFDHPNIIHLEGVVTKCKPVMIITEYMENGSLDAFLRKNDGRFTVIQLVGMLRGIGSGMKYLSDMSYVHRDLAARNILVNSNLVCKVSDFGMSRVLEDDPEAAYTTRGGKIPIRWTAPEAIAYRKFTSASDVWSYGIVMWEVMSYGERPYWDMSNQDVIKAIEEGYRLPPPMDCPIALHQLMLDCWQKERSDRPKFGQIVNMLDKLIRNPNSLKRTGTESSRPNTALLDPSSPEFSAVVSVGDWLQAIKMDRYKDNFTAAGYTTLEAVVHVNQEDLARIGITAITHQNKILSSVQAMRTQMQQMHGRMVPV

Structure (SMILES) | residual kinase activity ([1]; 0.3 µM) | residual kinase activity ([2]; 0.3 µM) | residual kinase activity ([3]; 0.3 µM) | residual kinase activity ([4]; 0.3 µM) | residual kinase activity ([5]; 0.3 µM) | residual kinase activity ([6]; 0.3 µM) | residual kinase activity ([7]; 0.3 µM) | also measured
COc1ccnc2[nH]cc(-c3cc(N)nc(N)c3)c12 [meriolin 16] | 85 % of control | 64 % of control | 6 % of control | 4 % of control | 3 % of control | 104 % of control | 89 % of control | residual kinase activity ([1]; 0.03 µM): 105 % of control; residual kinase activity ([2]; 0.03 µM): 99 % of control; residual kinase activity ([3]; 0.03 µM): 44 % of control; residual kinase activity ([4]; 0.03 µM): 22 % of control; residual kinase activity ([5]; 0.03 µM): 11 % of control; residual kinase activity ([6]; 0.03 µM): 107 % of control; residual kinase activity ([7]; 0.03 µM): 98 % of control
c1ccc(CNc2cc(-c3c[nH]c4ncccc34)ccn2)cc1 [meriolin 36] | 93 % of control | 16 % of control | 7 % of control | 3 % of control | 4 % of control | 112 % of control | 119 % of control | residual kinase activity ([1]; 3 µM): 72 % of control; residual kinase activity ([2]; 3 µM): 1 % of control; residual kinase activity ([3]; 3 µM): 2 % of control; residual kinase activity ([4]; 3 µM): 0 % of control; residual kinase activity ([5]; 3 µM): 2 % of control; residual kinase activity ([6]; 3 µM): 108 % of control; residual kinase activity ([7]; 3 µM): 106 % of control
